This is an account of results in patent publication US7868147B2, “Fluorescent probe” (Sekisui Medical Co., Ltd., priority 2003, dated 2011).

The conditions of data set [1]: literature (Lindqvist et al., 1966); cited from earlier work.
The nature of data set [2]: Maximum excitation and fluorescence wavelength of fluorescein derivatives. Type of data set: physicochemical. To be noted: measured in 0.1 N aqueous NaOH. The source says: (§1) Correlation between fluorescence quantum yield and the oxidation potential of the benzene ring moiety of each compound prepared above was studied. As clearly shown by the results in the figure, the fluorescence quantum yield of each compound changed depending on the oxidation potential of the benzene ring moiety. In an alkaline solution at pH 13, the OH group of the xanthene ring dissociates its proton to become an anion, and under this condition, the compound whose oxidation potential is 1.20V or lower became almost non-fluorescent, whereas the compound whose oxidation potential is 1.65V or higher emitted fluorescence with a quantum yield of almost 1. Between the two values, it was observed that the quantum yield decreases according to the decrease in the oxidation potential. An oxidation potential of the benzene ring under the acidic condition at pH 3.4, which has an influence on fluorescence, is different from that under a basic condition, i.e., the compound whose oxidation potential is 1.60V or lower is almost no fluorescent, whereas the compound whose oxidation potential is 1.90V or higher emitted fluorescence with a quantum yield of almost 0.3. It is known that the OH group of the xanthene ring is protonated at pH 3.4, and under this condition, the quantum yield of Fluorescein is about 0.3.

The nature of data set [3]: Oxidation potential of the benzene ring moiety (PET donor). The settings on record: 0.1 M acetonitrile containing tetrabutylammonium perchlorate (TBAP). Type of data set: physicochemical.
Text: For the selection of a combination of R^1 and R^2, information of the electron density of the benzene ring to which they bind may be utilized. Information of the electron density of the benzene ring is easily available, for example, by calculating oxidation potential of said benzene ring according to a quantum chemical means. A reduction of the oxidation potential of said benzene ring means an increase of the electron density of said benzene ring, which corresponds to an elevation of HOMO orbital energy. For example, HOMO energy of said benzene ring moiety can be determined by a density functional theory (B3LYP/6-31G(d)). All the oxidation potentials described in the specification are indicated as values obtained with a saturated calomel electrode as a reference electrode, of which base line is different by about 0.24 V from that used for values obtained with a silver/silver nitrate electrode (Ag/Ag^+) as a reference electrode.
as §1

Data set [4] in a line: Fluorescence quantum yield. Type of data set: physicochemical. The settings on record: for Φfl (pH 3.4): pH 3.4, xanthene OH protonated; for Φfl (pH 13): pH 13, xanthene OH deprotonated.
Text: as §1

Data set [5] can be described thus: Fluorescence quantum yield. Type of data set: physicochemical. The settings on record: 100 mM sodium phosphate buffer.

For `O=c1ccc2c(-c3ccccc3)c3ccc(O)cc3oc-2c1` [6-Hydroxy-9-phenylfluorone], the “fluorescence quantum yield relative to fluorescein” value in data set [1] was “lower fluorescence quantum yield”.
For the molecule `Cc1ccccc1-c1c2ccc(=O)cc-2oc2cc(O)ccc12` [Compound 1], in data set [2], the Maximum excitation wavelength was 491 nm and the Maximum fluorescence wavelength is 510 nm. Besides, the Oxidation potential in data set [3] is 2.19 V vs SCE. In data set [4], the “Φfl (pH 3.4)” value worked out at 0.319 and the “Φfl (pH 13)” value is reported as 0.847.
Consider `Cc1ccc(-c2c3ccc(=O)cc-3oc3cc(O)ccc23)c(C)c1` [Compound 2], for which, in data set [2], the Maximum excitation wavelength came to 491 nm and the Maximum fluorescence wavelength came to 510 nm. Moreover, the Oxidation potential in data set [3] is given as 2.08 V vs SCE. Besides, in data set [4], the “Φfl (pH 3.4)” value came out at 0.307 and the “Φfl (pH 13)” value was 0.865.
The like results for `Cc1ccc(C)c(-c2c3ccc(=O)cc-3oc3cc(O)ccc23)c1` [Compound 3] were, in that order, 491 nm, 510 nm, 1.98 V vs SCE, 0.319 and 0.887.
In the same order, the values of `COc1ccccc1-c1c2ccc(=O)cc-2oc2cc(O)ccc12` [Compound 4] are 494 nm, 515 nm, 1.75 V vs SCE, 0.076 and 0.860.
Turning to `COc1ccc(-c2c3ccc(=O)cc-3oc3cc(O)ccc23)c(C)c1` [Compound 5], in data set [2], the Maximum excitation wavelength is 492 nm and the Maximum fluorescence wavelength was 509 nm. The Oxidation potential in data set [3] was 1.66 V vs SCE. Also, in data set [4], the “Φfl (pH 3.4)” value is 0.010 and the “Φfl (pH 13)” value was 0.840.
The like results for `COc1ccc(C)cc1-c1c2ccc(=O)cc-2oc2cc(O)ccc12` [Compound 6] were, in that order, 494 nm, 514 nm, 1.57 V vs SCE, 0.004 and 0.500.
Take `COc1ccc(-c2c3ccc(=O)cc-3oc3cc(O)ccc23)c(OC)c1` [Compound 7]: in data set [2], the Maximum excitation wavelength is 494 nm and the Maximum fluorescence wavelength worked out at 513 nm. Further, in data set [3], the Oxidation potential is 1.44 V vs SCE. For the same molecule, in data set [4], the “Φfl (pH 3.4)” value is reported as 0.001 and the “Φfl (pH 13)” value came to 0.200.
The like results for `COc1ccc(OC)c(-c2c3ccc(=O)cc-3oc3cc(O)ccc23)c1` [Compound 8] were, in that order, 494 nm, 512 nm, 1.26 V vs SCE, 0.000 and 0.010.
On to `COc1ccc(-c2c3ccc(=O)cc-3oc3cc(OP(=O)(O)O)ccc23)c(C)c1` [Compound 11], for which the Φfl in data set [5] (pH 7.4) is on record as 0.029.
On to `COC(=O)COc1ccc(-c2c3ccc(=O)cc-3oc3cc(O)ccc23)c(C)c1` [Compound 15], for which the Φfl in data set [5] (pH 9.0) stood at 0.87.
`COC(=O)COc1ccc(-c2c3ccc(=O)cc-3oc3cc(O[C@@H]4OC(COC(C)=O)[C@H](OC(C)=O)C(OC(C)=O)C4OC(C)=O)ccc23)c(C)c1` (stereo partly shown) [Compound 16]: the Φfl in data set [5] (pH 7.4) is recorded as 0.069.
Regarding `COC(=O)CCCCOc1ccc(-c2c3ccc(=O)cc-3oc3cc(O)ccc23)c(C)c1` [Compound 17], the Φfl in data set [5] (pH 9.0) amounted to 0.82.
For `COC(=O)CCCCOc1ccc(-c2c3ccc(=O)cc-3oc3cc(O[C@@H]4OC(COC(C)=O)[C@H](OC(C)=O)C(OC(C)=O)C4OC(C)=O)ccc23)c(C)c1` (stereo partly shown) [Compound 18], the Φfl in data set [5] (pH 7.4) is reported as 0.005.
